Data as given in EP1051405B1, “NOVEL DIHYDROXYHEXANOIC ACID DERIVATIVES” (Pfizer Products Inc., priority 1998, dated 1999).

Test: physchem
Settings: phosphate buffer, pH 7, aqueous buffer
Description: Solubility of the compounds is determined at four fixed concentrations and is expressed as µg/mL. Solubility or insolubility is measured in phosphate buffer using a turbidometric plate reader by automated micro addition of a compound predissolved in DMSO. Solubilities at 50, 100, 200 and 250 or 100, 200, 400 and 500 micrograms/mL can be determined by predissolving 1 mg of compound in sufficient DMSO to reach an initial concentration of 20 or 40 µg/ µL.
A spectramax 250 UV transparent 96 well microplate is filled with 200 µL of Stock pH 7 phosphate buffer solution. A series of 25 absorption readings in a 5 by 5 matrix at a wavelength of 492nm are taken for each well in the microplate containing pH buffer alone. […]
After compound addition, a second scan consisting of a series of 25 absorption readings in a 5 by 5 matrix are taken for each well in the microplate at the same wavelength as the first blank scan. The raw compound OD values for each reading in the 5 by 5 matrix are subtracted from the corresponding "blank" values in the 5 by 5 matrix to provide the raw solubility OD data.
Data obtained from the Tecan SLT Spectra Image Reader is then analyzed using a Visual Basic computer program (or can be calculated manually according to methods well known to those of ordinary skill in the art), so as to provide solubility data for each compound.

solubility	Compound
> 100 µg/mL	CC(C)(O)CC[C@H](C[C@H](O)[C@H](Cc1cccc(Cl)c1)NC(=O)c1cnc2ccccc2n1)C(N)=O [Example 2, Quinoxaline-2-carboxylic acid [4(R)-carbamoyl-1(S)-(3-chloro-benzyl)-2(S),7-dihydroxy-7-methyl-octyl]-amide]
< 5 µg/mL	CC(C)(F)CC[C@H](C[C@H](O)[C@H](Cc1ccccc1)NC(=O)c1cnc(Cl)c(Cl)c1)C(N)=O [Example 247]
